Measurements from patent publication US9737542B2, “Pyrrolotriazine kinase inhibitors” (BRISTOL-MYERS SQUIBB COMPANY, priority 2013, dated 2017).

Target: GST-Xa-hAAK1 (Homo sapiens (Human), UniProt Q2M2I8)
Experiment: AAK1 Kinase Assay
Type: biochemical
Conditions: ATP 22 μM; 3 hours at room temperature
Description: The assays were performed in U-bottom 384-well plates. […] The reactions were initiated by the combination of bacterially expressed, GST-Xa-hAAK1 with substrates and test compounds. The reactions were incubated at room temperature for 3 hours and terminated by adding 60 μl of 35 mM EDTA buffer to each sample. The reactions were analyzed on the Caliper LabChip 3000 (Caliper, Hopkinton, Mass.) by electrophoretic separation of the fluorescent substrate and phosphorylated product. Inhibition data were calculated by comparison to EDTA quenched control reactions for 100% inhibition and vehicle-only reactions for 0% inhibition. […] Dose response curves were generated to determine the concentration required inhibiting 50% of kinase activity (IC50). Compounds were dissolved at 10 mM in dimethylsulfoxide (DMSO) and evaluated at eleven concentrations. IC50 values were derived by non-linear regression analysis.

Chain of GST-Xa-hAAK1 (Q2M2I8 whole entry): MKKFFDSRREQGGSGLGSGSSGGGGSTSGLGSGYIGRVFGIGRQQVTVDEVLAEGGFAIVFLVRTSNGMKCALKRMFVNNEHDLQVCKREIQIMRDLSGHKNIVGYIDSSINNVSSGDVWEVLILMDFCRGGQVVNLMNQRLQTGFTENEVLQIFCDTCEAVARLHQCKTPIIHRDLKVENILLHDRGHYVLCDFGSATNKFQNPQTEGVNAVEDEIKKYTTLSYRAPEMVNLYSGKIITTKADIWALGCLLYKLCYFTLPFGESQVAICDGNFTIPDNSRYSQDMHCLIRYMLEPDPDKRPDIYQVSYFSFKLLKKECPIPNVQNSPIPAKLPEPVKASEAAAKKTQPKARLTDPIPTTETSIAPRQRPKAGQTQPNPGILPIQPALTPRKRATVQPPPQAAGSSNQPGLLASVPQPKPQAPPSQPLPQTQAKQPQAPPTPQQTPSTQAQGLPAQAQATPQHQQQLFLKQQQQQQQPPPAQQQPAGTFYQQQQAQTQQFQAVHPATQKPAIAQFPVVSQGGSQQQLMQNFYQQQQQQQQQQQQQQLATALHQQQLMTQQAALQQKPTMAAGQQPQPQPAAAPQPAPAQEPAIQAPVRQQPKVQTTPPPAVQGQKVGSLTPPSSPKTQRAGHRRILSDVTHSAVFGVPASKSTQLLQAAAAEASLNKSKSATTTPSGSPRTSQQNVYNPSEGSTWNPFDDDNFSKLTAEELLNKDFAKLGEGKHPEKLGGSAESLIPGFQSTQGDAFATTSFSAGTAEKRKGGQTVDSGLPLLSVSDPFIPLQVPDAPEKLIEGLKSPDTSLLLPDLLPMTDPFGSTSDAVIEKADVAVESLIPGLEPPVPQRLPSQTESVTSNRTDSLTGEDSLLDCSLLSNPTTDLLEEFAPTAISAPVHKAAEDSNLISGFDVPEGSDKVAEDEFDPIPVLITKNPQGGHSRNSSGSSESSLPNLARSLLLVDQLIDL

SMILES | IC50
CC(C)c1nc(-c2ccc(Cl)c(Nc3ncnn4ccc(CN5CCC(N)CC5)c34)c2)no1 [Example 43, 5-((4-aminopiperidin-1-yl)methyl)-N-(2-chloro-5-(5-isopropyl-1,2,4-oxadiazol-3-yl)phenyl)pyrrolo[2,1-f][1,2,4]triazin-4-amine] | 0.265 µM
CC(C)n1nnc(-c2cccc(NCc3ccn4ncnc(Nc5cccc(-c6nnn(C(C)C)n6)c5)c34)c2)n1 [Example 61, N-(3-(2-isopropyl-2H-tetrazol-5-yl)phenyl)-5-(((3-(2-isopropyl-2H-tetrazol-5-yl)phenyl)amino)methyl)pyrrolo[2,1-f][1,2,4]triazin-4-amine] | 2.58 µM

The remaining lines, values ahead:

IC50 | SMILES
0.022 µM | Cc1ccn2ncnc(Nc3cccc(-c4nnn(C(C)C)n4)c3)c12 [Example 88, N-(3-(2-isopropyl-2H-tetrazol-5-yl)phenyl)-5-methylpyrrolo[2,1-f][1,2,4]triazin-4-amine]
2.53 µM | CCOC(=O)c1ccn2ncnc(Nc3cc(O)cc(-c4nnn(C(C)C)n4)c3)c12 [Example 95, ethyl 4-((3-hydroxy-5-(2-isopropyl-2H-tetrazol-5-yl)phenyl)amino)pyrrolo[2,1-f][1,2,4]triazine-5-carboxylate]
0.291 µM | CC(C)c1nc(-c2cccc(Nc3ncnn4cccc34)c2)no1 [Example 77, N-(3-(5-isopropyl-1,2,4-oxadiazol-3-yl)phenyl)pyrrolo[2,1-f][1,2,4]triazin-4-amine]
0.217 µM | CC(C)n1nnc(-c2cccc(Nc3ncnn4ccc(CN)c34)c2)n1 [Example 99, 5-(aminomethyl)-N-(3-(2-isopropyl-2H-tetrazol-5-yl)phenyl)pyrrolo[2,1-f][1,2,4]triazin-4-amine]
0.195 µM | CCNC(=O)c1ccn2ncnc(Nc3cccc(-c4nnn(C(C)C)n4)c3)c12 [Example 104, N-ethyl-4-((3-(2-isopropyl-2H-tetrazol-5-yl)phenyl)amino)pyrrolo[2,1-f][1,2,4]triazine-5-carboxamide]
1.17 µM | COc1cc(Nc2ncnn3ccc(C)c23)cc(-c2noc(C(C)C)n2)c1 [Example 92, N-(3-(5-isopropyl-1,2,4-oxadiazol-3-yl)-5-methoxyphenyl)-5-methylpyrrolo[2,1-f][1,2,4]triazin-4-amine]
0.624 µM | CCOC(=O)c1ccn2ncnc(Nc3cccc(-c4nnn(C(C)C)n4)c3)c12 [Example 96, ethyl 4-((3-(2-isopropyl-2H-tetrazol-5-yl)phenyl)amino)pyrrolo[2,1-f][1,2,4]triazine-5-carboxylate]
2.35 µM | CC(C)NC(=O)c1ccn2ncnc(Nc3cccc(-c4nnn(C(C)C)n4)c3)c12 [Example 106, N-isopropyl-4-((3-(2-isopropyl-2H-tetrazol-5-yl)phenyl)amino)pyrrolo[2,1-f][1,2,4]triazine-5-carboxamide]
0.325 µM | Cc1ccn2ncnc(Nc3cccc(-c4nnc(C(C)C)s4)c3)c12 [Example 87, N-(3-(5-isopropyl-1,3,4-thiadiazol-2-yl)phenyl)-5-methylpyrrolo[2,1-f][1,2,4]triazin-4-amine]
0.469 µM | CC(C)n1nnc(-c2cccc(Nc3ncnn4ccc(C(=O)NCC#N)c34)c2)n1 [Example 107, N-(cyanomethyl)-4-((3-(2-isopropyl-2H-tetrazol-5-yl)phenyl)amino)pyrrolo[2,1-f][1,2,4]triazine-5-carboxamide]
0.207 µM | Cc1ccn2ncnc(Nc3cccc(-c4noc(C(C)(C)CO)n4)c3)c12 [Example 89, 2-methyl-2-(3-(3-(5-methylpyrrolo[1,2-f][1,2,4]triazin-4-ylamino)phenyl)-1,2,4-oxadiazol-5-yl)propan-1-ol]

Same assay, conditions: ATP 22 μM; 3 hours at room temperature; listed as IC50 ranges

SMILES | IC50
CNCc1ccn2ncnc(Nc3cccc(-c4nnn(C(C)C)n4)c3)c12 [Example 63, N-(3-(2-isopropyl-2H-tetrazol-5-yl)phenyl)-5-((methylamino)methyl)pyrrolo[2,1-f][1,2,4]triazin-4-amine] | 0.1 to 1 µM
CC(C)n1nnc(-c2ccc(O)c(Nc3ncnn4ccc(CN5CCC(N)CC5)c34)c2)n1 [Example 38, 2-((5-((4-aminopiperidin-1-yl)methyl)pyrrolo[2,1-f][1,2,4]triazin-4-yl)amino)-4-(2-isopropyl-2H-tetrazol-5-yl)phenol] | 0.001 to 0.01 µM
CCc1nnc(-c2cccc(Nc3ncnn4ccc(CN5CCC(N)CC5)c34)c2)[nH]1 [Example 15, 5-((4-aminopiperidin-1-yl)methyl)-N-(3-(5-ethyl-4H-1,2,4-triazol-3-yl)phenyl)pyrrolo[2,1-f][1,2,4]triazin-4-amine] | 0.01 to 0.1 µM
CC(C)Oc1cc(Nc2ncnn3ccc(CN4CCC(N)CC4)c23)cc(-c2nnn(C(C)C)n2)c1 [Example 62, 5-((4-aminopiperidin-1-yl)methyl)-N-(3-isopropoxy-5-(2-isopropyl-2H-tetrazol-5-yl)phenyl)pyrrolo[2,1-f][1,2,4]triazin-4-amine] | 0.1 to 1 µM
C=Cc1cccc(Nc2ncnn3ccc(CN4CCC(N)CC4)c23)c1 [Example 4, 5-((4-aminopiperidin-1-yl)methyl)-N-(3-vinylphenyl)pyrrolo[2,1-f][1,2,4]triazin-4-amine] | 0.1 to 1 µM
NC1CCN(Cc2ccn3ncnc(Nc4cccc(-c5csnn5)c4)c23)CC1 [Example 14, N-(3-(1,2,3-thiadiazol-4-yl)phenyl)-5-((4-aminopiperidin-1-yl)methyl)pyrrolo[2,1-f][1,2,4]triazin-4-amine] | 0.1 to 1 µM
CCCc1nnc(-c2cccc(Nc3ncnn4ccc(CN5CCC(N)CC5)c34)c2)s1 [Example 21, 5-((4-aminopiperidin-1-yl)methyl)-N-(3-(5-propyl-1,3,4-thiadiazol-2-yl)phenyl)pyrrolo[2,1-f][1,2,4]triazin-4-amine] | 0.01 to 0.1 µM
CC(C)c1nnc(-c2cccc(Nc3ncnn4ccc(CN5CCOCC5)c34)c2)s1 [Example 56, N-(3-(5-isopropyl-1,3,4-thiadiazol-2-yl)phenyl)-5-(morpholinomethyl)pyrrolo[2,1-f][1,2,4]triazin-4-amine] | 1 to 5 µM
CC(C)n1nnc(-c2cccc(Nc3ncnn4ccc(CN5CCOCC5)c34)c2)n1 [Example 57, N-(3-(2-isopropyl-2H-tetrazol-5-yl)phenyl)-5-(morpholinomethyl)pyrrolo[2,1-f][1,2,4]triazin-4-amine] | 0.01 to 0.1 µM
CC(C)n1nnc(-c2cccc(Nc3ncnn4ccc(CN5CCNCC5)c34)c2)n1 [Example 34, N-(3-(2-isopropyl-2H-tetrazol-5-yl)phenyl)-5-(piperazin-1-ylmethyl)pyrrolo[2,1-f][1,2,4]triazin-4-amine] | 0.01 to 0.1 µM
Cc1nnc(-c2cccc(Nc3ncnn4ccc(CN5CC6CNCC6C5)c34)c2)s1 (centres unmarked) [Example 20, 5-((hexahydropyrrolo[3,4-c]pyrrol-2(1H)-yl)methyl)-N-(3-(5-methyl-1,3,4-thiadiazol-2-yl)phenyl)pyrrolo[2,1-f][1,2,4]triazin-4-amine] | 1 to 5 µM
CC(C)c1nnc(-c2cccc(Nc3ncnn4ccc(CN5CCN(C)CC5)c34)c2)s1 [Example 55, N-(3-(5-isopropyl-1,3,4-thiadiazol-2-yl)phenyl)-5-((4-methylpiperazin-1-yl)methyl)pyrrolo[2,1-f][1,2,4]triazin-4-amine] | 0.1 to 1 µM
CC(C)n1nnc(-c2cccc(Nc3ncnn4ccc(CNC5CC6CCC(C5)N6C)c34)c2)n1 (centres unmarked) [Example 58, N-(3-(2-isopropyl-2H-tetrazol-5-yl)phenyl)-5-((8-methyl-8-azabicyclo[3.2.1]octan-3-ylamino)methyl)pyrrolo[1,2-f][1,2,4]triazin-4-amine] | 1 to 5 µM
NC1CCN(Cc2ccn3ncnc(Nc4cc(O)cc(-c5ncco5)c4)c23)CC1 [Example 7, 3-((5-((4-aminopiperidin-1-yl)methyl)pyrrolo[2,1-f][1,2,4]triazin-4-yl)amino)-5-(oxazol-2-yl)phenol] | 0.1 to 1 µM
CC(C)c1nc(-c2ccc(O)c(Nc3ncnn4ccc(CN5CCC(N)CC5)c34)c2)no1 [Example 3, 2-((5-((4-aminopiperidin-1-yl)methyl)pyrrolo[2,1-f][1,2,4]triazin-4-yl)amino)-4-(5-isopropyl-1,2,4-oxadiazol-3-yl)phenol] | 0.01 to 0.1 µM
CC(C)CNC(=O)c1cccc(Nc2ncnn3ccc(CN4CCC(N)CC4)c23)c1 [Example 33, 3-((5-((4-aminopiperidin-1-yl)methyl)pyrrolo[2,1-f][1,2,4]triazin-4-yl)amino)-N-isobutylbenzamide] | 0.01 to 0.1 µM
CC(C)n1nnc(-c2ccc(F)c(Nc3ncnn4ccc(CN5CCC(N)CC5)c34)c2)n1 [Example 50, 5-((4-aminopiperidin-1-yl)methyl)-N-(2-fluoro-5-(2-isopropyl-2H-tetrazol-5-yl)phenyl)pyrrolo[2,1-f][1,2,4]triazin-4-amine] | 0.1 to 1 µM
CC(C)n1nnc(-c2cc(F)cc(Nc3ncnn4ccc(CN5CCC(N)CC5)c34)c2)n1 [Example 51, 5-((4-aminopiperidin-1-yl)methyl)-N-(3-fluoro-5-(2-isopropyl-2H-tetrazol-5-yl)phenyl)pyrrolo[2,1-f][1,2,4]triazin-4-amine] | 0.001 to 0.01 µM
CCC(C)(C)c1nc(-c2cccc(Nc3ncnn4ccc(CN5CCC(N)CC5)c34)c2)no1 [Example 6, 5-((4-aminopiperidin-1-yl)methyl)-N-(3-(5-(tert-pentyl)-1,2,4-oxadiazol-3-yl)phenyl)pyrrolo[2,1-f][1,2,4]triazin-4-amine] | 0.01 to 0.1 µM
CC(C)(C)c1nc(-c2cccc(Nc3ncnn4ccc(CN5CCC(N)CC5)c34)c2)no1 [Example 5, 5-((4-aminopiperidin-1-yl)methyl)-N-(3-(5-(tert-butyl)-1,2,4-oxadiazol-3-yl)phenyl)pyrrolo[2,1-f][1,2,4]triazin-4-amine] | 0.01 to 0.1 µM

Continued, values first:

IC50 | SMILES
0.1 to 1 µM | CC(C)n1nnc(-c2cc(Nc3ncnn4ccc(CN5CCC(N)CC5)c34)cc3[nH]cnc23)n1 [Example 75, 5-((4-aminopiperidin-1-yl)methyl)-N-(4-(2-isopropyl-2H-tetrazol-5-yl)-1H-benzo[d]imidazol-6-yl)pyrrolo[2,1-f][1,2,4]triazin-4-amine]
0.01 to 0.1 µM | CC(C)n1nnc(-c2cc(Nc3ncnn4ccc(CN5CCC(N)CC5)c34)c3[nH]ccc3c2)n1 [Example 74, 5-((4-aminopiperidin-1-yl)methyl)-N-(5-(2-isopropyl-2H-tetrazol-5-yl)-1H-indol-7-yl)pyrrolo[2,1-f][1,2,4]triazin-4-amine]
